Results as given in US4720543A, “1a-7-substituted derivatives of mitomycin and uses thereof” (priority 1985, dated 1988).
“And” between values parts separate entries of the source, which are not always exact repeats. Equal entries are not always repeated. Where two headings read alike, the source gives them in different places.

Legend:
WP2s (E. coli) = assay: antibiotic activity, bacterial growth inhibition in culture; format: cell-based
Experimental: (§1) Bacteria were grown in a standard growth culture at pH 7.2. After the cultures were incubated at 37° C. overnight and diluted into fresh medium, controls and the test antibiotics dissolved in 0.3% hydroxy propylcellulose (HPC) were added at various concentrations and then reincubated overnight. The measure of antibiotic activity was determined by the amount of bacterial growth inhibition as shown by measurement of the optical density at 660 nm.

Listeria Sp. = assay: as above; format: cell-based
Experimental: as §1

P388 leukemia = assay: murine P388 leukemia antitumor activity; format: in vivo
Experimental: The murine P388 leukemia system, maintained intraperitoneally in female DBA/2 mice, was used to evaluate antitumor activity.
The P388 antileukemic activity of the test compound (M-TAG) was assessed by mean survival days, percentage increased life span or %ILS, and number of survivors after 45 days. The %ILS was calculated as follows:
%ILS=(T-C)/C×100 where T is the mean survival days of the treated mice and C is the mean survival days of the untreated mice

E. coli WP2s (λ) = conditions: for Induction of prophage, PFU/DISH: 24 hours
B16 melanoma = assay: murine B16 melanoma antitumor activity
Source text: Activity against the murine B16 melanoma is currently being determined.

Ehrlich ascites = assay: murine Ehrlich ascites antitumor activity; format: in vivo
Experimental: The antitumor activity of M-TAG for the murine Ehrlich ascities tumor was also determined. Ehrlich ascites was maintained i.p. in female BALB/C mice. For antitumor studies, 1×10^7 Ehrlich ascites cells (in 0.10 ml) were implanted i.p. in male BD2F1 mice. Drug was administered i.p. (single LD10 dose) one day after tumor implantation.

[1] = human bone marrow CFU-C assay; conditions: human, bone marrow cells
Experimental: (§2) The human bone marrow CFU-C assay measures human bone marrow cells committed to granulocyte-macrophage differentiation. This in vitro assay serves as a model for predicting the relative toxicity of an experimental drug on the granulocytic series of the bone marrow. […] Both drugs were dissolved in 0.5% DMSO, and nucleated human bone marrow cells were exposed in vitro (for 90 minutes at 37° C.) to varying concentrations of each drug. The cells were then plated in triplicate in 3% agar for the CFU-C assay, using GCT, (Giant Cell Tumor) extract (Gibco, Grand Island, N.Y.) as colony-stimulating factor.

human bone marrow cells = assay: human bone marrow CFU-C assay
Experimental: as §2

[2] = toxic single doses in normal CD2F1 mice; conditions: for Deaths due to drug toxicity: up to 45 days
Experimental: Drug was administered intraperitoneally (i.p.) in a volume of 0.1 ml per 10 grams body weight.

[3] = approximate LD10 dose (M-TAG 250 mg/kg; mitomycin C 4 mg/kg), day one

In the case of CO[C@@]12[C@H](COC(N)=O)C3=C(C(=O)C(C)=C(N)C3=O)N1C[C@H]1[C@@H]2N1C(=S)N[C@@H]1O[C@H](COC(C)=O)[C@@H](OC(C)=O)[C@H](OC(C)=O)[C@H]1NC(C)=O [M-TAG, 1a(N-2-acetamido-3,4,6-tri-O-acetyl-2-deoxy-D-glucopyranosylthiocarbamoyl)-mitomycin C], the “optical density at 660 nm (figure in parentheses)” value (“optical density at 660 nm” below) (WP2s (E. coli); 0.04 mcg/ml) is reported as 0.41, the “optical density at 660 nm” value (WP2s (E. coli); 0.4 mcg/ml) is reported as 0.29 and the “optical density at 660 nm” value (WP2s (E. coli); 4.0 mcg/ml) is reported as 0.30. The “optical density at 660 nm” value (WP2s (E. coli); 40 mcg/ml) was 0.12, the “optical density at 660 nm” value (WP2s (E. coli); 400 mcg/ml) was 0.009 and the inhibition at 0.04 µg/mL (WP2s (E. coli); Escherichia coli, 0.04 mcg/ml, 37° C. overnight, read-out: amount of bacterial growth inhibition (first figure)) was 39%. For the same compound, the inhibition at 0.4 µg/mL (WP2s (E. coli); Escherichia coli, 0.4 mcg/ml, 37° C. overnight, read-out: amount of bacterial growth inhibition (first figure)) was 51%, the inhibition at 4 µg/mL (WP2s (E. coli); Escherichia coli, 4.0 mcg/ml, 37° C. overnight, read-out: amount of bacterial growth inhibition (first figure)) was 50% and the inhibition at 40 µg/mL (WP2s (E. coli); Escherichia coli, 40 mcg/ml, 37° C. overnight, read-out: amount of bacterial growth inhibition (first figure)) was 76%. For the same compound, the inhibition at 400 µg/mL (WP2s (E. coli); Escherichia coli, 400 mcg/ml, 37° C. overnight, read-out: amount of bacterial growth inhibition (first figure)) was 98%, the “optical density at 660 nm” value (Listeria Sp.; 0.04 mcg/ml) was 0.59 and the “optical density at 660 nm” value (Listeria Sp.; 0.4 mcg/ml) was 0.59. For the same compound, the “optical density at 660 nm” value (Listeria Sp.; 4.0 mcg/ml) was 0.59, the “optical density at 660 nm” value (Listeria Sp.; 40 mcg/ml) was 0.036 and the “optical density at 660 nm” value (Listeria Sp.; 400 mcg/ml) was 0.00. It also gave an inhibition at 0.04 µg/mL (Listeria Sp.; Listeria, 0.04 mcg/ml, 37° C. overnight, read-out: amount of bacterial growth inhibition (first figure)) of 26%, an inhibition at 0.4 µg/mL (Listeria Sp.; Listeria, 0.4 mcg/ml, 37° C. overnight, read-out: amount of bacterial growth inhibition (first figure)) of 26% and an inhibition at 4 µg/mL (Listeria Sp.; Listeria, 4.0 mcg/ml, 37° C. overnight, read-out: amount of bacterial growth inhibition (first figure)) of 26%. The inhibition at 40 µg/mL (Listeria Sp.; Listeria, 40 mcg/ml, 37° C. overnight, read-out: amount of bacterial growth inhibition (first figure)) was 92%, the inhibition at 400 µg/mL (Listeria Sp.; Listeria, 400 mcg/ml, 37° C. overnight, read-out: amount of bacterial growth inhibition (first figure)) was 100% and the “overall survivals, M-TAG versus mitomycin C at LD10 dose (in words)” value (P388 leukemia; LD10 dose) was “no statistical difference in the overall survivals”. For the same compound, the “% ILS” value (P388 leukemia; [3]) was 85%, the “Mean Survival” value (P388 leukemia; [3]) was 22 days and the “antitumor activity against murine P388 leukemia (in words)” value (P388 leukemia; mouse, in vivo) was “equivalent to that achieved with the parent mitomycin C”. For the same compound, the “maximum increase of phage titer over control” value (E. coli WP2s (λ)) was 50-100%, the “Induction of prophage, PFU/DISH” value (E. coli WP2s (λ); 0.005 ug/ml) was 148.5 PFU/DISH and the “Induction of prophage, PFU/DISH” value (E. coli WP2s (λ); 0.020 ug/ml) was 152.5 PFU/DISH. For the same compound, the “Induction of prophage, PFU/DISH” value (E. coli WP2s (λ); 0.03125 ug/ml) was 591.5 PFU/DISH, the “Induction of prophage, PFU/DISH” value (E. coli WP2s (λ); 0.125 ug/ml) was 799.5 PFU/DISH and the “Induction of prophage, PFU/DISH” value (E. coli WP2s (λ); 0.500 ug/ml) was 2535.0 PFU/DISH. For the same compound, the “Induction of prophage, PFU/DISH” value (E. coli WP2s (λ); 2.000 ug/ml) was 5395.0 PFU/DISH, the “Induction of prophage, PFU/DISH” value (E. coli WP2s (λ); 3.125 ug/ml) was 3516.5 PFU/DISH and the “Induction of prophage, PFU/DISH” value (E. coli WP2s (λ); 12.500 ug/ml) was 461.5 PFU/DISH. The “Induction of prophage, PFU/DISH” value (E. coli WP2s (λ); 50.000 ug/ml) was 169.0 PFU/DISH, the “Induction of prophage, PFU/DISH” value (E. coli WP2s (λ); 200.000 ug/ml) was 14.5 PFU/DISH and the “mice alive on day 20” value (B16 melanoma; M-TAG 250 mg/kg or mitomycin C 4 mg/kg, i.p. day 1) was 6 out of 10. For the same compound, the “mice alive on day 10” value (B16 melanoma; M-TAG 250 mg/kg or mitomycin C 4 mg/kg, i.p. day 1, all vehicle-control mice died) was “All”, the “antitumor activity against murine B16 melanoma (in words)” value (B16 melanoma; mouse, in vivo) was “significant antitumor activity” and the “antitumor activity against murine Ehrlich ascites (in words)” value (Ehrlich ascites; mouse, in vivo) was “significant antitumor activity”. The “% ILS” value (Ehrlich ascites; single approximate LD10 dose i.p. (M-TAG 250 mg/kg; mitomycin C 4 mg/kg), one day after implantation) was 66%, the “Mean Survival” value (Ehrlich ascites; single approximate LD10 dose i.p., 250 mg/kg) was 22.8 days and the activity at 1.5 h, 100 µM [1] was 66%. The activity at 1.5 h, 500 µM [1] was 43%, the activity at 1.5 h, 1000 µM [1] was < 20% and the “bone marrow toxicity compared to parent mitomycin-C (in words)” value (human bone marrow cells) was “reduced bone marrow toxicity”. For the same compound, the “Deaths due to drug toxicity” value ([2]; 250 mg/kg, single i.p. dose) was 0/10, the “Deaths due to drug toxicity” value ([2]; 275 mg/kg, single i.p. dose) was 1/10 and the “Deaths due to drug toxicity” value ([2]; 300 mg/kg, single i.p. dose) was 3/10. The “difference in LD10 dose in mice relative to mitomycin C” value ([2]; molar basis) was 30-40 fold, the “approximate LD10 dose (molar)” value ([2]; single i.p. dose) was ~346 µmol/kg and the LD10 dose ([2]; single i.p. dose toxic to 10% of normal mice) was 275 mg/kg and 250 to 275 mg/kg and ~250 mg/kg.
